{
  "source": "patent US11066478B2",
  "about": "“Intravesical therapy for bladder cancer” (PHOTOCURE ASA, priority 2015, dated 2021)",
  "origin": "cited, not measured here",
  "key": {"[1]": {"test_system": "bladder cancer", "details": "patients who underwent cystectomy for bladder cancer, HAL-guided TUR prior to cystectomy"}, "[2]": {"test_system": "NMIBC", "details": "patients with NMIBC"}},
  "data": [
    {"smiles": "CCCCCCOC(=O)CCC(=O)CN", "note": "[HAL, n-hexyl 5-amino-4-oxo-pentanoate]", "values": [
      {"measurement": "3-year overall survival (OS)", "setting": "[1]; comparison 56.6%", "result": 65.0, "unit": "%"},
      {"measurement": "3-year recurrence-free survival (RFS)", "setting": "[1]; white light TUR alone 58.2%", "result": 69.8, "unit": "%"},
      {"measurement": "rate of residual tumor after TUR", "setting": "[2]; HAL-guided TUR", "result": "reduced the rate of residual tumor"},
      {"measurement": "recurrence free survival (RFS) rates", "setting": "[2]; HAL-guided TUR compared to white light TUR alone", "result": "superior recurrence free survival (RFS) rates"},
      {"measurement": "detection of papillary tumors and flat carcinoma-in-situ (CIS) lesions", "setting": "[2]; HAL-guided cystoscopy and TUR versus white light alone", "result": "increased detection"}
    ]}
  ]
}
